{"source": "patent US9457033B2", "about": "“Steroid alkaloids and uses thereof as antimicrobial agents against electron transport-deficient microbes and as potentiators for antimicrobial agents against pathogenic bacteria” (priority 2011, dated 2016)", "key": {"[1]": {"test_system": "S. aureus SCV NewbouldΔhemB", "experiment": "microbe, parasite or virus in culture", "assay_type": "cell-based", "conditions": "Staphylococcus aureus, 24 h, read-out: Diameter of inhibition zone"}, "[2]": {"test_system": "normal strain CF07-L", "experiment": "Broth growth with gentamicin or tomatidine, visually evaluated (FIG. 5A)", "conditions": "gentamicin at 4 μg/ml or tomatidine at 0.12 μg/ml alone, 48 h"}, "[3]": {"test_system": "S. aureus CF07-L (normal strain)", "experiment": "MIC, microdilution in BHI 48 h (Examples 1, 3)", "assay_type": "cell-based, Staphylococcus aureus"}, "[4]": {"test_system": "S. aureus ATCC 29213", "experiment": "MIC, microdilution in BHI 48 h (Examples 1, 3)", "assay_type": "cell-based, Staphylococcus aureus"}, "[5]": {"test_system": "S. aureus CF1A-L (normal strain)", "experiment": "MIC, microdilution in BHI 48 h", "assay_type": "cell-based, Staphylococcus aureus", "conditions": "Staphylococcus aureus; CF1A-L, normal strain; read-out: MIC"}, "[6]": {"test_system": "SCV CF07-S", "experiment": "Tomatidine susceptibility with supplemental menadione, spotted on agar (FIG. 1A)", "assay_type": "cell-based, Staphylococcus aureus", "conditions": "in the presence of supplemental menadione", "description": "Normal (Newbould, CF07-L and CF1A-L), and SCV (NewbouldΔhemB (in the presence and absence of hemin), CF07-S (in the presence and absence of menadione) and CF1D-S) S. aureus strains were treated with various concentrations of tomatidine (4, 2, 1, 0.5, 0.25, 0.12 and 0.06 μg/ml) for 48 h in the Brain Hearth Infusion (BHI) medium at 35° C. and 10 μl samples were thereafter spotted on agar plated which were further incubated for 48 h before a picture was taken."}, "[7]": {"test_system": "SCV strain CF07-S in shCFTR cells", "experiment": "Intracellular infection of polarized CF airway epithelial cells (shCFTR)", "assay_type": "cell-based, Staphylococcus aureus", "conditions": "1.25 and 12.5 μg/ml of tomatidine; 48 h post-internalization; FIG. 4B"}, "[8]": {"test_system": "S. aureus SCV NewbouldΔhemB", "experiment": "MIC, microdilution in BHI 48 h", "assay_type": "cell-based, Staphylococcus aureus", "conditions": "Staphylococcus aureus"}, "[9]": {"test_system": "S. aureus SCV CF41A-S", "experiment": "microbe, parasite or virus in culture", "assay_type": "cell-based", "conditions": "Staphylococcus aureus, SCVCF41AS, 24 h, read-out: Diameter of inhibition zone"}, "[10]": {"test_system": "S. aureus Newbould (normal strain)", "experiment": "MIC, microdilution in BHI 48 h", "assay_type": "cell-based, Staphylococcus aureus", "conditions": "Staphylococcus aureus; Newbould, normal strain; read-out: MIC"}, "[11]": {"test_system": "S. aureus SCV CF07-S", "experiment": "MIC, microdilution in BHI 48 h (Examples 1, 3)", "assay_type": "cell-based, Staphylococcus aureus"}, "[12]": {"test_system": "S. aureus SCV CF1D-S", "experiment": "MIC, microdilution in BHI 48 h", "assay_type": "cell-based, Staphylococcus aureus", "conditions": "Staphylococcus aureus, SCVCF1DS"}}, "note": "Like-named read-outs stand apart in the source and are kept apart here.", "data": [{"smiles": "C[C@H]1CC[C@]2(NC1)O[C@H]1C[C@H]3[C@@H]4CC[C@H]5C[C@@H](O)CC[C@]5(C)[C@H]4CC[C@]3(C)[C@H]1[C@@H]2C", "note": "[Tomatidine, tomatidine]", "values": [{"measurement": "zone of inhibition at 50 µg/disc", "setting": "[1]", "value": 23.5, "unit": "mm"}, {"measurement": "growth, visually evaluated", "setting": "[2]", "value": "does not"}, {"measurement": "MIC", "setting": "[3]; CF07-L + HQNO at 20 μg/ml", "value": 0.5, "unit": "µg/mL"}, {"measurement": "MIC", "setting": "[3]; CF07-L, without HQNO", "value": ">16", "unit": "µg/mL"}, {"measurement": "MIC", "setting": "[3]; Staphylococcus aureus, CF07-L, normal strain, read-out: MIC", "value": "> 16", "unit": "µg/mL"}, {"measurement": "MIC", "setting": "[4]; ATCC 29213 + HQNO at 20 μg/ml", "value": "0.12 to 0.25", "unit": "µg/mL"}, {"measurement": "MIC", "setting": "[4]; ATCC 29213, without HQNO", "value": ">16", "unit": "µg/mL"}, {"measurement": "MIC", "setting": "[4]; ATCC 29213 in MHBCA", "value": ">16", "unit": "µg/mL"}, {"measurement": "MIC", "setting": "[4]; Staphylococcus aureus, ATCC29213, ATCC 29213 in BHI, read-out: MIC", "value": "> 16", "unit": "µg/mL"}, {"measurement": "MIC", "setting": "[4]; Staphylococcus aureus, ATCC29213, ATCC 29213, 1 μg/ml CCCP, read-out: MIC in presence of CCCP", "value": 0.12, "unit": "µg/mL"}, {"measurement": "MIC", "setting": "[5]", "value": "> 16", "unit": "µg/mL"}, {"measurement": "susceptibility to tomatidine", "setting": "[6]", "value": "abolished"}, {"measurement": "intracellular SCVs CF07-S vs DMSO-treated control cells", "setting": "[7]", "value": "significantly less"}, {"measurement": "MIC", "setting": "[8]", "value": 0.12, "unit": "µg/mL"}, {"measurement": "zone of inhibition at 50 µg/disc", "setting": "[9]", "value": 21.5, "unit": "mm"}, {"measurement": "MIC", "setting": "[10]", "value": "> 16", "unit": "µg/mL"}, {"measurement": "MIC", "setting": "[11]; CF07-S + HQNO at 20 μg/ml", "value": 0.12, "unit": "µg/mL"}, {"measurement": "MIC", "setting": "[11]; CF07-S, without HQNO", "value": 0.12, "unit": "µg/mL"}, {"measurement": "MIC", "setting": "[11]; Staphylococcus aureus, SCVCF07S", "value": 0.12, "unit": "µg/mL"}, {"measurement": "MIC", "setting": "[12]", "value": 0.12, "unit": "µg/mL"}]}]}
